# How the values were obtained:
# [1] = Substantivity (deposition) on hair tresses; settings: 0.5% aqueous solution/dispersion on hair tresses
# [2] = test system: P. aeruginosa, E. coli, S. aureus, Candida albicans and A. niger; test: CTFA challenge test, overall outcome; format: cell-based; settings: 30% aqueous paste
# Excerpt: It was challenge tested with both Gram negative, Gram positive bacteria and yeast and mold by the standard challenge test protocol recommended by CTFA. The test organisms used were P. aeruginosa, E. coli, S. aureus, Candida albicans and A. niger.
# (§1) Following strains of Gram positive, Gram negative bacteria and yeast and mold were used for the challenge test. Staphylococcus aureus ATCC 653, Escherichia coli ATCC 8739, Pseudomonas aeruginosa ATCC 15442, Candida albicans ATCC 10231, and Aspergillus niger ATCC 16404.
# (§2) The test is conducted in the six sterile containers each containing a fix equal amount of test sample. Each container was inoculated with a 1% of standardized Inoculum of the microorganism.
# (§3) The initial concentration of the viable microorganism in each test preparation is estimated based on the concentration of microorganism in each of the standardized Inoculum as determined by the plate count method.
# (§4) Each container is incubated at 25° C. The aliquot of sample of each container is removed at appropriate intervals of time 0 day, 24 hrs, 48 hrs, and 7 days, 14 days, 21 days and 28 days.
# [3] = Surface tension of water (surface activity); format: physicochemical
# [4] = Hair color protection (anti-fade) through rinse-off conditioner, Hunter L* a* b*; settings: rinse-off conditioner with MCBDC vs placebo, ten wash/UV cycles, five hours total UV exposure
# Method: They were dyed using L'Oreal's Burgundy color as per the protocol described by the dye manufacturer.
# Hair coloring (hair dyeing) process is performed as recommended by the marketed product. The color and the developer were mixed in ratio of 1:1 and shampooed hair tresses were treated with the same. The color and developer mixture was applied uniformly to the hair tresses and covered with the aluminum foil for twenty minutes. After this the hair tresses were washed with warm water. […] The ‘Placebo’ and ‘Treated’ hair tresses were exposed to UV radiation, total exposure of five hours through total to washing cycles comprising, shampooing, conditioning, rinsing and UV exposure of 30 mins at time using the equipment described in Example 5. The fading of color of the sets of hair tresses, Control, Placebo and Treated was measured on the Hunter instrument, Labscan XE spectrophotometer. The total color loss (ΔE) is assessed by the change in L* a* b* scale using the equation ΔE=[(ΔL)^2+(Δa)^2+(Δb)^2]^1/2.
# [5] = Viscosity boosting in SLES/CAPB shampoo formulation; format: physicochemical
# Method: A typical placebo shampoo base was prepared with sodium lauryl ether sulphate (12%), cocoamidopropyl betaine (4%), EDTA disodium salt (0.1%), preservative (1%, phenoxy ethanol containing four parabens) and rest deionized water. […] All ingredients were mixed using a Silverson homogenizer thoroughly till a uniform homogeneous mixture was formed.
# The base shampoo based on sodium lauryl ether sulphate (2EO) and cocoamidopropyl betaine was prepared as described in Example 4.
# [6] = Combing force on Diastron tensile tester after shampoo application; settings: shampoo containing MCBDC (2%), one application, as compared to placebo shampoo
# [7] = Hair protection against UV induced damage through rinse-off conditioner (combing force); settings: rinse-off conditioner with 2% MCBDC vs placebo conditioner
# Method: Double bleached European hair were shampooed with the placebo shampoo of Example 4 and conditioned according to the following protocol. The details of UV chamber and exposure conditions are given below.
# Placebo shampoo of Example 4 was applied for 1 minute to European hair and rinsed the tresses with water for one minute 25° C. with controlled finger movements. This was followed by conditioner application for one minute application time, one minute contact time and one and half minute for rinsing off with warm water (40° C.).
# Treated hair tresses were exposed to UV radiation with the help of UV lamp for 48 hours. UV exposed hair tresses were then subjected to combing force evaluation on Diastron tensile tester.
# Two tresses per treatment were used. The treated tresses were irradiated with UV chamber which is equipped with two tubes emitting UV light in short UV (254 nm) and long UV 315-400 nm) regions. Sankyo Denki G8TS tube with UV output of 2.5 W was used as short UV light source while Sankyo Denki F8T5BLB backlight—blue tube with UV output of 1.4 W was used as long UV light source. Washing and UV exposure was given in the following sequence for 50 h. UV exposed tresses were washed with isopropanol to remove the quaternary followed by combing force measurement on Diastron Tensile Tester (MTT 175).
# [8] = Zeta potential, Malvern Zetasizer Nano; format: physicochemical; settings: 1% dispersion
# Excerpt: Also the high zeta potential ensures the stability of colloidal dispersions.
# [9] = Sensory evaluation of shampooed hair; settings: shampoo containing 2.0% MCBDC vs base shampoo, panel of 10
# Method: Sensory Evaluation of shampooed hair: The subjective evaluation was conducted by the panel of 10. The evaluator scored tresses of the scale of 1 to 2.
# UV absorption of MCBDC = format: physicochemical
# Excerpt: MCDBC is obtained as practically odorless white paste and has solids content of 30% (Example 2). The product as such has absorbance (E 1%, 1 cm) of 130 at λ max of 306 nm in ethanol.
# Its molar extinction coefficient c is 28,000 when measured at same λ max
# The white pasty mass that is practically odorless had E1% 1 cm of 130 at λ max 306 nm in EtOH.
# [10] = test system: Escherichia coli ATCC 8739; test: Challenge test on aqueous paste (30%); format: cell-based; settings: 30% aqueous paste, 25° C.
# Method: as §1, §2, §3, §4
# [11] = test system: Staphylococcus aureus ATCC 653; test: Challenge test on aqueous paste (30%); format: cell-based; settings: 30% aqueous paste, 25° C.
# Method: as §1, §2, §3, §4
# [12] = test system: Pseudomonas aeruginosa ATCC 15442; test: Challenge test on aqueous paste (30%); format: cell-based; settings: 30% aqueous paste, 25° C.
# Method: as §1, §2, §3, §4
# [13] = test system: Aspergillus niger ATCC 16404; test: Challenge test on aqueous paste (30%); format: cell-based; settings: 30% aqueous paste, 25° C.
# Method: as §1, §2, §3, §4
# [14] = test system: Candida albicans ATCC 10231; test: Challenge test on aqueous paste (30%); format: cell-based; settings: 30% aqueous paste, 25° C.
# Method: as §1, §2, §3, §4
compound,measurement,setting,value
"COc1cc(O)c(C(=O)c2ccccc2)cc1S(=O)(=O)O [B-4, Benzophenone-4]",amount deposited on hair (substantivity),[1],276 μg/g of hair
p-methoxy cinnamidopropyl behenyl dimethyl ammonium chloride [MCBDC],preservation outcome of challenge test,[2],self preserving
same,Drop in surface tension of water,[3],35 dynes
same,surface tension of water,"[3]; at 1.0%, 30° C., reduced from 72 Mn/m",35 Mn/m
same,total color loss (ΔE),[4],Lower ΔE
same,change in viscosity of shampoo formulation,"[5]; MCBDC 0.5% to 2.0% in base (3000 cps, salt 0.7%), Brookfield spindle No 4, 12 rpm, 25° C.",linear increase in viscosity
same,viscosity of shampoo,"[5]; shampoo with 2% MCBDC, placebo shampoo 3000 cps","18,000 cps"
same,"reduction in combing force, dry combing",[6],19.40%
same,"reduction in combing force, wet combing",[6],51.08%
same,"reduction in combing force after UV exposure, dry combing",[7],about 30%
same,"reduction in combing force after UV exposure, wet combing",[7],about 30%
same,Zeta potential,[8],+47 mV
same,sensorial evaluation,[9],significant enhancement of sensory attributes
same,molar extinction coefficient,UV absorption of MCBDC; at λ max 306 nm,"28,000"
same,"absorbance (E 1%, 1 cm)","UV absorption of MCBDC; λ max 306 nm in ethanol, product as such, paste with solids content 30%",130
same,TVC E. coli,[10]; 0 hr,0.41 × 10^4 cfu/gm
same,TVC E. coli,[10]; 24 hr,<10 cfu/gm
same,TVC E. coli,[10]; 48 hr,<10 cfu/gm
same,TVC E. coli,[10]; 7 days,<10 cfu/gm
same,TVC E. coli,[10]; 14 days,<10 cfu/gm
same,TVC E. coli,[10]; 21 days,<10 cfu/gm
same,TVC E. coli,[10]; 28 days,<10 cfu/gm
same,TVC S. aureus,[11]; 0 hr,3 × 10^6 cfu/gm
same,TVC S. aureus,[11]; 24 hr,<10 cfu/gm
same,TVC S. aureus,[11]; 48 hr,<10 cfu/gm
same,TVC S. aureus,[11]; 7 days,<10 cfu/gm
same,TVC S. aureus,[11]; 14 days,<10 cfu/gm
same,TVC S. aureus,[11]; 21 days,<10 cfu/gm
same,TVC S. aureus,[11]; 28 days,<10 cfu/gm
same,TVC Ps. Aeruginosa,[12]; 0 hr,0.43 × 10^5 cfu/gm
same,TVC Ps. Aeruginosa,[12]; 24 hr,4.16 × 10^4 cfu/gm
same,TVC Ps. Aeruginosa,[12]; 48 hr,4.16 × 10^4 cfu/gm
same,TVC Ps. Aeruginosa,[12]; 7 days,<10 cfu/gm
same,TVC Ps. Aeruginosa,[12]; 14 days,<10 cfu/gm
same,TVC Ps. Aeruginosa,[12]; 21 days,<10 cfu/gm
same,TVC Ps. Aeruginosa,[12]; 28 days,<10 cfu/gm
same,TVC Asp. niger,[13]; 0 hr,0.78 × 10^5 cfu/gm
same,TVC Asp. niger,[13]; 24 hr,1.16 × 10^1 cfu/gm
same,TVC Asp. niger,[13]; 48 hr,2.03 × 10^2 cfu/gm
same,TVC Asp. niger,[13]; 7 days,<10 cfu/gm
same,TVC Asp. niger,[13]; 14 days,<10 cfu/gm
same,TVC Asp. niger,[13]; 21 days,<10 cfu/gm
same,TVC Asp. niger,[13]; 28 days,<10 cfu/gm
same,TVC C. albicans,[14]; 0 hr,0.6 × 10^3 cfu/gm
same,TVC C. albicans,[14]; 24 hr,<10 cfu/gm
same,TVC C. albicans,[14]; 48 hr,<10 cfu/gm
same,TVC C. albicans,[14]; 7 days,<10 cfu/gm
same,TVC C. albicans,[14]; 14 days,<10 cfu/gm
same,TVC C. albicans,[14]; 21 days,<10 cfu/gm
same,TVC C. albicans,[14]; 28 days,<10 cfu/gm
